Source: PubChem BioAssay (NCI)
Values joined by “and” are separate entries in the source; they are usually repeats but may differ in a detail not shown here. Equal values may be shown once.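 Step 1: Grow cells in 96-well plates. Step 2: Expose to compound for 48 hours at 5 concentrations. Step 3: Interpolate endpoints linearly; if unreached, use highest concentration. Abbreviation: GI50, concentration required for 50% inhibition of growth. TGI marks complete inhibition of growth.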

What was measured:
Assay in all cases: growth of human tumour cells (NCI), 48 h
CCRF-CEM leukemia = tested on: CCRF-CEM leukemia
OVCAR-4 ovarian = tested on: OVCAR-4 ovarian
SNB-75 CNS = tested on: SNB-75 CNS
NCI/ADR-RES ovarian = tested on: NCI/ADR-RES ovarian
NCI-H226 lung = tested on: NCI-H226 lung
SK-MEL-5 melanoma = tested on: SK-MEL-5 melanoma
HT29 colon = tested on: HT29 colon
KM12 colon = tested on: KM12 colon

COC1/C=C/OC2(C)Oc3c(C)c(O)c4c(O)c(c(C=NOC(c5ccccc5)c5ccccc5)c(O)c4c3C2=O)NC(=O)/C(C)=C/C=C/C(C)C(O)C(C)C(O)C(C)C(OC(C)=O)C1C (centres undefined)
GI50 (CCRF-CEM leukemia): 0.42 µM | TGI (CCRF-CEM leukemia): 3.62 µM | GI50 (OVCAR-4 ovarian): 1.63 µM | TGI (OVCAR-4 ovarian): 6.01 µM | GI50 (SNB-75 CNS): 1.34 µM | TGI (SNB-75 CNS): 5.73 µM | GI50 (NCI/ADR-RES ovarian): 1.67 µM | TGI (NCI/ADR-RES ovarian): 6.19 µM | GI50 (NCI-H226 lung): 1.74 µM | TGI (NCI-H226 lung): 8.76 µM | GI50 (SK-MEL-5 melanoma): 0.805 µM | TGI (SK-MEL-5 melanoma): 1.52 µM | GI50 (HT29 colon): 1.01 µM | TGI (HT29 colon): 2.13 µM | GI50 (KM12 colon): 0.992 µM | TGI (KM12 colon): 1.96 µM

CS(=O)(=O)c1ccc(-c2cnc(NCc3ccco3)n3cnnc23)cc1
GI50 (CCRF-CEM leukemia): 38 µM | TGI (CCRF-CEM leukemia): > 100 µM | GI50 (OVCAR-4 ovarian): > 100 µM | TGI (OVCAR-4 ovarian): > 100 µM | GI50 (SNB-75 CNS): > 100 µM | TGI (SNB-75 CNS): > 100 µM | GI50 (NCI/ADR-RES ovarian): > 100 µM | TGI (NCI/ADR-RES ovarian): > 100 µM | GI50 (NCI-H226 lung): 49 µM | TGI (NCI-H226 lung): > 100 µM | GI50 (SK-MEL-5 melanoma): 31.7 µM | TGI (SK-MEL-5 melanoma): > 100 µM | GI50 (HT29 colon): 28.8 µM | TGI (HT29 colon): > 100 µM | GI50 (KM12 colon): > 100 µM | TGI (KM12 colon): > 100 µM

COc1cc(/C=C2\CC3C4CCC5=CC(=O)CC[C@]5(C)C4CC[C@]3(C)C2=O)ccc1OCCN1CCCCC1 (some centres undefined)
GI50 (OVCAR-4 ovarian): 8.35 µM | TGI (OVCAR-4 ovarian): 92.2 µM | GI50 (SNB-75 CNS): 6.97 µM | TGI (SNB-75 CNS): 24.8 µM | GI50 (NCI/ADR-RES ovarian): 4.62 µM | TGI (NCI/ADR-RES ovarian): > 100 µM | GI50 (NCI-H226 lung): 5.24 µM | TGI (NCI-H226 lung): 21.1 µM | GI50 (SK-MEL-5 melanoma): 1.51 µM | TGI (SK-MEL-5 melanoma): 3.09 µM | GI50 (HT29 colon): 3.37 µM | TGI (HT29 colon): 64.8 µM | GI50 (KM12 colon): 1.69 µM | TGI (KM12 colon): 3.52 µM

COc1ccc(/C=C/C(=O)c2ccccc2)cc1OC
GI50 (CCRF-CEM leukemia): 3.72 µM | TGI (OVCAR-4 ovarian): 36.6 µM and 33.3 µM | GI50 (SNB-75 CNS): 16.7 µM | TGI (SNB-75 CNS): 28.9 µM and 35.1 µM | GI50 (NCI/ADR-RES ovarian): 8.33 µM | TGI (NCI/ADR-RES ovarian): > 100 µM and 93.1 µM | GI50 (NCI-H226 lung): 16.4 µM | TGI (NCI-H226 lung): 53.6 µM and 32.3 µM | GI50 (SK-MEL-5 melanoma): 14.5 µM | TGI (SK-MEL-5 melanoma): 31.4 µM and 27.9 µM | GI50 (HT29 colon): 3.86 µM | TGI (HT29 colon): 22.2 µM and 16.2 µM | GI50 (KM12 colon): 6 µM | TGI (KM12 colon): 10.2 µM and > 100 µM

Cc1nc2cc(Nc3nc(Nc4ccc(F)cc4)nc(N4CCCC4)n3)ccc2n1Cc1ccccc1
GI50 (CCRF-CEM leukemia): 2.38 µM | TGI (CCRF-CEM leukemia): 5.6 µM | GI50 (OVCAR-4 ovarian): 1.62 µM | TGI (OVCAR-4 ovarian): 4 µM | GI50 (SNB-75 CNS): 1.58 µM | TGI (SNB-75 CNS): 3.45 µM | GI50 (NCI/ADR-RES ovarian): 1.96 µM | TGI (NCI/ADR-RES ovarian): 3.94 µM | GI50 (NCI-H226 lung): 1.9 µM | TGI (NCI-H226 lung): 4.29 µM | GI50 (SK-MEL-5 melanoma): 1.66 µM | TGI (SK-MEL-5 melanoma): 3.09 µM | GI50 (HT29 colon): 1.93 µM | TGI (HT29 colon): 3.89 µM | GI50 (KM12 colon): 1.86 µM | TGI (KM12 colon): 3.51 µM

COC(=O)Cc1nn2c(nc1=O)sc1ccc3ccccc3c12
TGI (CCRF-CEM leukemia): > 100 µM | TGI (OVCAR-4 ovarian): > 100 µM | TGI (SNB-75 CNS): 76.3 µM | TGI (NCI-H226 lung): > 100 µM | TGI (SK-MEL-5 melanoma): > 100 µM | TGI (HT29 colon): > 100 µM | TGI (KM12 colon): > 100 µM

COc1cccc(/C=C2\CCc3ccccc3C2=O)c1
GI50 (CCRF-CEM leukemia): 3.04 µM | TGI (CCRF-CEM leukemia): 16.5 µM | GI50 (OVCAR-4 ovarian): 13.7 µM | TGI (OVCAR-4 ovarian): 54.5 µM | GI50 (SNB-75 CNS): 16.9 µM | TGI (SNB-75 CNS): 36 µM | GI50 (NCI/ADR-RES ovarian): 10.1 µM | TGI (NCI/ADR-RES ovarian): 48.8 µM | GI50 (NCI-H226 lung): 17.8 µM | TGI (NCI-H226 lung): 43.1 µM | GI50 (SK-MEL-5 melanoma): 10.7 µM | TGI (SK-MEL-5 melanoma): 23 µM | GI50 (HT29 colon): 5.89 µM | TGI (HT29 colon): 19.4 µM | GI50 (KM12 colon): 6.31 µM | TGI (KM12 colon): 18.8 µM

COc1cc2oc(-c3ccc(O)cc3)cc(=O)c2c(OC)c1O
TGI (CCRF-CEM leukemia): > 100 µM | TGI (OVCAR-4 ovarian): > 100 µM | TGI (SNB-75 CNS): 55.1 µM | TGI (NCI/ADR-RES ovarian): > 100 µM | TGI (NCI-H226 lung): > 100 µM | TGI (SK-MEL-5 melanoma): > 100 µM | TGI (HT29 colon): > 100 µM

NC(CSC1(c2ccc(Cl)cc2)c2ccccc2-c2ccccc21)C(=O)O (centres undefined)
TGI (CCRF-CEM leukemia): > 100 µM | TGI (OVCAR-4 ovarian): > 100 µM | TGI (SNB-75 CNS): 62.9 µM | TGI (NCI/ADR-RES ovarian): > 100 µM | TGI (NCI-H226 lung): 67.5 µM | TGI (SK-MEL-5 melanoma): 30.6 µM | TGI (HT29 colon): > 100 µM | TGI (KM12 colon): 63.2 µM
